Data from US20060263895A1, “Method for monitoring the stereoselectivity and relative rate of organic chemical reactions” (priority 2005, published 2006).

Columns and labels:
[1] = molecular target: T1, Lactobacillus kefir alcohol dehydrogenase (LKADH) (Lentilactobacillus kefiri, UniProt Q6WVP7); experiment: LKADH oxidation of 1,2-hexenediol; assay type: biochemical
T1 sequence (Q6WVP7 1-252): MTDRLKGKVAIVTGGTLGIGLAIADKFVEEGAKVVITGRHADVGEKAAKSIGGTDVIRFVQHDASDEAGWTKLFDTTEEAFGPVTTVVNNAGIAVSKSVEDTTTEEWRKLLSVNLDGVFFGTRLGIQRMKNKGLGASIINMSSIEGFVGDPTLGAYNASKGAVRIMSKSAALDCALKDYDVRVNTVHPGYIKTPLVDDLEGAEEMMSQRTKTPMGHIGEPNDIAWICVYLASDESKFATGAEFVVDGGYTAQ
Source text: (§1) The following examples illustrate the invention with respect to an in situ enzymatic screening (ISES) method to predict the enantioselectivity of chiral catalysts for the hydrolytic kinetic resolution (HKR) of (±) hexene oxide. Above, it was shown that the method of the invention may be employed to predict the enantioselectivity and relative rate of a catalyst library for HKR of (±)-propylene oxide using horse liver alcohol dehydrogenase (HLADH) and Thermoalaerobium brockii alcohol dehydrogenase (TBADH).

[2] = molecular target: T2, HLADH (Equus caballus, UniProt P00327); experiment: HLADH oxidation of 1,2-hexenediol; assay type: biochemical, horse
T2 construct: purchased; host or cells: equine liver
T2 sequence (P00327 whole entry): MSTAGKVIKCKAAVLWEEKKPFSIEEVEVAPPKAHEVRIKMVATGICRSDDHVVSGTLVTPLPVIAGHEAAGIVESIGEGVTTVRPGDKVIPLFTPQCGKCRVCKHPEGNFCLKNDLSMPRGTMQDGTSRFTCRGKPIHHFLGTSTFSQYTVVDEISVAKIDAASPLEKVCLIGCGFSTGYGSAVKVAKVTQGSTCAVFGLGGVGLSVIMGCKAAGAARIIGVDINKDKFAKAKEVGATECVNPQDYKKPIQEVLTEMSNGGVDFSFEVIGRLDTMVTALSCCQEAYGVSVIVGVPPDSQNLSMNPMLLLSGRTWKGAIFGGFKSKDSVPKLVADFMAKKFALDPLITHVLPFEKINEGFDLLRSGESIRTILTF
Source text: as §1

[3] = molecular target: T3, alcohol dehydrogenase from Thermoanaerobium brockii (TBADH) (Thermoanaerobacter brockii, UniProt P14941); conditions: read-out: reported Km value for NADP+ with TBADH; cited from earlier work
T3 construct: purchased
T3 sequence (P14941 1-352): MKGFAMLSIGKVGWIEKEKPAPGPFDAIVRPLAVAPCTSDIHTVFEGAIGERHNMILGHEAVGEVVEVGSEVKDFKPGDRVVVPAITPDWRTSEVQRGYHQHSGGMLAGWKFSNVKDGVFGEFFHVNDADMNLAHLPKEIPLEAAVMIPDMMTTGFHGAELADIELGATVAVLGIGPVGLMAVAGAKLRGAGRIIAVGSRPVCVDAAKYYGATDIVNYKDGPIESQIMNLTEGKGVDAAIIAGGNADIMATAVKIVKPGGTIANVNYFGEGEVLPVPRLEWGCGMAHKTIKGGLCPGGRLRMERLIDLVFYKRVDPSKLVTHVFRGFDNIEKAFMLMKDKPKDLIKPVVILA

[4] = Double cuvette-ISES (in situ enzymatic screening) of Co(III)-salen mediated HKR of (±)-propylene oxide
Summary of the method: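 Co(III)-salen catalysts (0.25 mol %) in CHCl3 with (±)-propylene oxide (7.2 M in organic layer), overlaid with aqueous reporting layers in 50 mM sodium pyrophosphate, final pH 8.6. Reporters: 0.35 U HLADH/7.2 mM NAD+ ((S)-diol) or 0.35 U TBADH/2.2 mM NADP+ ((R)-diol). A340 increase gives enantioselectivity and relative rate estimates.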

[5] = HKR of (±)-propylene oxide under standard neat 'Jacobsen conditions' (NMR conversion, chiral HPLC ee); conditions: for NMR conv. (time): 3 h; for NMR conv. (time) / % ee (HPLC): loading 0.25 mol %; for % ee (HPLC) / % ee of the 1,2-propanediol product, as observed by chiral HPLC (lower number): + = (S), − = (R); for % ee of the 1,2-propanediol product, as observed by chiral HPLC (lower number): neat propylene oxide, 0.55 equiv. H2O, 0.25 mol % catalyst, 3 h reaction time
Summary of the method: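 Co(III)-salen catalyst (0.25 mol %) with neat (±)-propylene oxide and water (0.55 equiv.), added at 0° C., then stirred at room temperature, usually 3 h (longer if <5% conversion). Conversion by 1H NMR; diol isolated, derivatized to bis(p-bromobenzoate), ee by chiral HPLC.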

[6] = Catalyst performance in the ISES cuvette (biphasic HKR), ee of isolated diol by chiral HPLC; conditions: diol isolated from merged ISES cuvettes
Procedure: For several catalysts, control experiments were run to assess whether running the HKR under biphasic conditions influences the enantioselectivity of these Co(III)-salen HKR catalysts. In such cases, parallel duplicate ‘double-cuvette’ runs were chosen (i.e. two HLADH cuvettes and two TBADH cuvettes for a single catalyst). Following the ISES runs, the contents of all four reporting cuvettes were merged. Unreacted epoxide was rapidly removed under Ar stream. Following dilution with CH2Cl2 (˜50 mL), sodium sulfate was added to adsorb remaining water. The resulting organic solution was filtered and the filter cake washed with CH2Cl2 (2×20 mL). Following evaporation of the solvent, the crude diols were derivatized directly with p-bromobenzoyl imidazole to yield the 1,2-propanediol bis(pbromobenzoate) esters, which were then purified by silica gel chromatography to estimate diol yields. Enantiomeric excesses were determined using chiral HPLC, as before. […] Indeed, the ee's seen from diol isolated directly out of the cuvette generally appear slightly higher than those obtained under ‘Jacobsen conditions,’ probably reflecting the shorter reaction times employed in the ISES experiment.

[7] = [total 1,2-propanediol] in aqueous ISES layer by 1H NMR
Procedure: The concentration of 1,2-propanediol in the aqueous layer was estimated under typical ISES conditions using 1H NMR spectroscopy. The bilayer was prepared as usual for double cuvette-ISES (Section V), but for the substitution of D2O for H2O in the buffer, and the elimination of the dehydrogenase enzymes. After 15 min, the aqueous layer (300 μL of 500 μL total) was withdrawn and mixed with a fresh solution of imidazole of known concentration (also 300 μL in D2O), as an internal concentration standard. Accumulation of the 1H NMR spectrum, followed by integration and quantitation, provided an experimental measure of [total diol] in the aqueous reporting layer at t=15 minutes for the catalyst under investigation. The observed diol concentrations for ten catalysts examined in this way are collected in Table S6, below. These have been normalized to the value for the catalyst derived from salen 3b (arbitrarily assigned a rate of 1.0).

[8] = HKR of (±)-hexene oxide under neat conditions; conditions: in 30 min, 2.0 mol % catalyst, 25° C.
Procedure: Co(III)-salen (acetate) catalysts were evaluated for HKR of (±)-hexene oxide, under neat conditions, similar to those described by Jacobsen and co-workers (Schaus, S. E.; Brandes, B. D.; Larrow, J. F.; Tokunaga, M.; Hansen, K. B.; Gould, A. E.; Furrow, M. E.; Jacobsen, E. N. J. Am. Chem. Soc. 2002, 124, 1307-1315). Reactions were stopped after 0.5 h, to obtain the enantiopurity of the 1,2-hexenediol produced at relatively early reaction times, for comparison with biphasic ISES predictions.
A typical procedure follows: To the Co(III)-salen catalyst derived from 1e (16.6 mg, 23.2 μmol, 2.0 mol %) at rt was added (±)-hexene oxide (116 mg, 1.16 mmols). The mixture was cooled to 0° C. Then water (11.4 μL, 0.64 mmols, 0.55 equiv.) was added and the flask was capped tightly and stirred 25° C. for 30 min. The progress of the reaction was estimated by ^1H NMR, the reaction mixture was cooled to 0° C., an aliquot was then withdrawn and dissolved in CDCl3 at 0° C. bath. After distilling over the unreacted epoxide, the diol product was collected, and then itself distilled again by Kugelrohr. When the reaction conversion was more than 50% in 30 min, 15 min reaction time was used (for catalyst 1e) to get the product diol.
To determine ee, the isolated diol was derivatized using p-bromobenzoyl imidazole (2.2 equiv.) in THF in the presence of NaH (4 equiv.) at rt for 5 min. […]

[9] = bilayer of pH 8.6 buffer over 7.2 M epoxide in CHCl3, 0.25 mol % catalyst, 15-35 min, + = (S), − = (R)
[10] = reaction stopped at the time given (mostly 3 h)

CCCCC(O)CO (stereo not drawn)
selectivity of LKADH for the oxidation of 1,2-hexenediol [1]: high (S)-selectivity
selectivity of HLADH for the oxidation of 1,2-hexenediol [2]: modest (S)-selectivity

NC(=O)c1ccc[n+]([C@@H]2O[C@H](COP(=O)([O-])OP(=O)(O)OC[C@H]3O[C@@H](n4cnc5c(N)ncnc54)[C@H](OP(=O)(O)O)[C@@H]3O)[C@@H](O)[C@H]2O)c1 [NADP+]
Km [3]: 13 µM

CC(C)(C)c1cc(C=NC[C@H](Cc2cccc3ccccc23)N=Cc2cc(C(C)(C)C)cc(C(C)(C)C)c2O)c(O)c(C(C)(C)C)c1 [Salen 4a, N,N′-Bis(3′,5′-di-tert-butylsalicylidene)-(1S)-(α-naphthylmethyl)-1,2-ethylenediamine]
% ee predicted double cuvet-ISES ([4]; bilayer): 77 % ee
% ee of the 1,2-propanediol product, as predicted by double-cuvette ISES (upper number) [4, 9]: +77 % ee
NMR conv. (time) [5]: 35 (3 h) %
% ee (HPLC) [5, 10]: +76 (S) % ee
% ee measured neat 'Jacobsen conditions' [5]: 76 % ee
% ee of the 1,2-propanediol product, as observed by chiral HPLC (lower number) [5]: +76 % ee
% ee measured biphasic conds. [6]: 82 % ee

CO[C@H]1[C@@H]2OC(C)(C)O[C@@H]2COC1(CN=Cc1cc(C(C)(C)C)cc(C(C)(C)C)c1O)N=Cc1cc(C(C)(C)C)cc(C(C)(C)C)c1O (stereo partly drawn) [Salen 7a, N,N′-Bis(3′,5′-di-tert-butylsalicylidene)-3-O-methyl-4,5-O-isopropylidene-1,2-dideoxy-Dfructopyranosyl-1,2-diamine]
% ee predicted double cuvet-ISES ([4]; bilayer): −33 % ee
% ee of the 1,2-propanediol product, as predicted by double-cuvette ISES (upper number) ([4]; bilayer of pH 8.6 buffer over 7.2 M epoxide in CHCl3, 0.25 mol % catalyst, 15-35 min, + = (S), − = (R), listed as 7a*): −33 % ee
NMR conv. (time) ([5]; listed as 7a*): 7 (3 h) %
% ee (HPLC) ([5]; reaction stopped at the time printed in the row (mostly 3 h), listed as 7a*): −59 (R) % ee
% ee measured neat 'Jacobsen conditions' [5]: −59 % ee
% ee of the 1,2-propanediol product, as observed by chiral HPLC (lower number) ([5]; listed as 7a*): −59 % ee
% ee measured biphasic conds. [6]: −55 % ee

N,N′-Bis(3′,5′-di-tert-butylsalicylidene[1R-(1α,2α,5α)]-2-amino-7,7-dimethyl-2-bicyclo[3.3.1]heptane-ethanamine [Salen 1a]
% ee predicted double cuvet-ISES ([4]; bilayer): 56 % ee
% ee of the 1,2-propanediol product, as predicted by double-cuvette ISES (upper number) [4, 9]: +56 % ee
NMR conv. (time) [5]: 12 (3 h) %
% ee (HPLC) [5, 10]: +72 (S) % ee
% ee measured neat 'Jacobsen conditions' [5]: 72 % ee
% ee of the 1,2-propanediol product, as observed by chiral HPLC (lower number) [5]: +72 % ee
% ee measured biphasic conds. [6]: 87 % ee
[diol] (mM) @ 15 min ([7]; aqueous ISES layer, 1H NMR, t = 15 min): 19 mM
Norm. ([7]; normalized to the catalyst derived from salen 3b (rate 1.0)): 0.20

N,N′-Bis(3′,5′-diiodosalicylidene)-[1R-(1α,2α,5α)]-2-amino-7,7-dimethyl-2-bicyclo[3.3.1]heptaneethanamine [Salen 1e]
% ee of the 1,2-propanediol product, as predicted by double-cuvette ISES (upper number) ([4]; catalyst tested at 0.05 mol %, bilayer): +47 % ee
% ee (HPLC) [5, 10]: +28 (S) % ee
% ee of the 1,2-propanediol product, as observed by chiral HPLC (lower number) [5]: +28 % ee
reaction conversion [8]: more than 50%
